Laboratory results published in PubChem BioAssay (NCI).
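GI50: concentration for 50% inhibition of growth. Definition used: TGI = concentration required for complete inhibition of growth.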

How the values were obtained:
Assay in all cases: inhibition of tumour cell growth, NCI panel, 384-well format
[1] = test system: DU-145 prostate
[2] = test system: OVCAR-4 ovarian
[3] = test system: T-47D breast
[4] = test system: SW-620 colon
[5] = test system: PC-3 prostate
[6] = test system: U251 glioblastoma
[7] = test system: SN12C renal
[8] = test system: KM12 colon
[9] = test system: OVCAR-3 ovarian
[10] = test system: COLO 205 colon
[11] = test system: SR leukemia
[12] = test system: MDA-MB-468 breast
[13] = test system: SF-539 CNS
[14] = test system: UO-31 renal
[15] = test system: NCI-H460 NSCLC
[16] = test system: OVCAR-5 ovarian
[17] = test system: SK-OV-3 ovarian
[18] = test system: MOLT-4 leukemia
[19] = test system: HS 578T breast
[20] = test system: NCI/ADR-RES ovarian
[21] = test system: A549 NSCLC
[22] = test system: HL-60(TB) leukemia
[23] = test system: HT29 colon
[24] = test system: SF-295 CNS
[25] = test system: HOP-62 NSCLC
[26] = test system: NCI-H23 lung
[27] = test system: BT-549 breast
[28] = test system: EKVX NSCLC
[29] = test system: K-562 leukemia
[30] = test system: RXF 393 renal
[31] = test system: A498 renal
[32] = test system: SF-268 CNS
[33] = test system: IGROV1 ovarian
[34] = test system: MALME-3M melanoma
[35] = test system: SNB-19 CNS
[36] = test system: UACC-62 melanoma
[37] = test system: MDA-MB-435 melanoma
[38] = test system: MCF7 breast
[39] = test system: LOX IMVI melanoma
[40] = test system: ACHN renal
[41] = test system: HOP-92 NSCLC
[42] = test system: NCI-H522 lung
[43] = test system: CAKI-1 renal
[44] = test system: SK-MEL-5 melanoma
[45] = test system: SK-MEL-28 melanoma
[46] = test system: TK-10 renal
[47] = test system: HCT-15 colon
[48] = test system: HCT-116 colon
[49] = test system: CCRF-CEM leukemia
[50] = test system: SK-MEL-2 melanoma
[51] = test system: NCI-H322M lung
[52] = test system: SNB-75 CNS
[53] = test system: UACC-257 melanoma
[54] = test system: NCI-H226 lung
[55] = test system: HCC-2998 colon
[56] = test system: M14 melanoma
[57] = test system: MDA-MB-231 breast
[58] = test system: RPMI-8226 leukemia
[59] = test system: 786-0 renal

## Cc1ccc(NS(=O)(=O)c2cccc(C#N)c2)c2[nH]cc(C#N)c12
[1]
  GI50: 4.29 µM
  TGI: > 100 µM
[2]
  GI50: 18.2 µM
  TGI: > 100 µM
[3]
  GI50: 23.1 µM
  TGI: 79.2 µM
[4]
  GI50: 14.7 µM
  TGI: > 100 µM
[5]
  GI50: 1.44 µM
  TGI: > 100 µM
[6]
  GI50: 16.9 µM
  TGI: > 100 µM
[7]
  GI50: 27.7 µM
  TGI: > 100 µM
[8]
  GI50: 27.1 µM
  TGI: > 100 µM
[9]
  GI50: 22.2 µM
  TGI: 87.6 µM
[10]
  GI50: 10.5 µM
  TGI: > 100 µM
[11]
  GI50: 0.155 µM
  TGI: 0.799 µM
[12]
  GI50: 0.165 µM
  TGI: 0.629 µM
[13]
  GI50: 37.5 µM
  TGI: > 100 µM
[14]
  GI50: 17.8 µM
  TGI: 53.9 µM
[15]
  GI50: 17.6 µM
  TGI: > 100 µM
[16]
  GI50: 31.1 µM
  TGI: > 100 µM
[17]
  GI50: 6.53 µM
  TGI: > 100 µM
[18]
  GI50: 0.66 µM
  TGI: 13.6 µM
[19]
  GI50: 16.2 µM
  TGI: 65.6 µM
[20]
  GI50: 1.24 µM
  TGI: > 100 µM
[21]
  GI50: 15.1 µM
  TGI: > 100 µM
[22]
  GI50: 12 µM
  TGI: 26 µM
[23]
  GI50: 47.2 µM
  TGI: > 100 µM
[24]
  GI50: 7.23 µM
  TGI: 42.1 µM
[25]
  GI50: 12.2 µM
  TGI: > 100 µM
[26]
  GI50: 20 µM
  TGI: 43.9 µM
[27]
  GI50: 24.9 µM
  TGI: 57.6 µM
[28]
  GI50: 28.7 µM
  TGI: 83.9 µM
[29]
  GI50: 0.525 µM
  TGI: > 100 µM
[30]
  GI50: 15.6 µM
  TGI: 52.7 µM
[31]
  GI50: 19.7 µM
  TGI: > 100 µM
[32]
  GI50: 37.4 µM
  TGI: > 100 µM
[33]
  GI50: 0.247 µM
  TGI: > 100 µM
[34]
  GI50: 61.7 µM
  TGI: > 100 µM
[35]
  GI50: 20.2 µM
  TGI: > 100 µM
[36]
  GI50: 0.777 µM
  TGI: 28 µM
[37]
  GI50: 10.6 µM
  TGI: 44.5 µM
[38]
  GI50: 11 µM
  TGI: > 100 µM
[39]
  GI50: 32.1 µM
  TGI: > 100 µM
[40]
  GI50: 10.4 µM
  TGI: > 100 µM
[41]
  GI50: 19.9 µM
  TGI: 54.6 µM
[42]
  GI50: 0.292 µM
  TGI: 15.3 µM
[43]
  GI50: 18 µM
  TGI: > 100 µM
[44]
  GI50: 15.7 µM
  TGI: 38 µM
[45]
  GI50: 32.9 µM
  TGI: 95.9 µM
[46]
  GI50: 5.02 µM
  TGI: > 100 µM
[47]
  GI50: 10.3 µM
  TGI: > 100 µM
[48]
  GI50: 0.246 µM
  TGI: > 100 µM
[49]
  GI50: 15.1 µM
  TGI: 43.3 µM
[50]
  GI50: 33.3 µM
  TGI: 60 µM
[51]
  GI50: 39.4 µM
  TGI: > 100 µM
[52]
  GI50: 29.9 µM
  TGI: > 100 µM
[53]
  GI50: 48.6 µM
  TGI: > 100 µM
[54]
  GI50: 12.4 µM
  TGI: 70.6 µM
[55]
  GI50: 24 µM
  TGI: > 100 µM
[56]
  GI50: 26.5 µM
  TGI: > 100 µM
[57]
  GI50: 14.7 µM
  TGI: > 100 µM
[58]
  GI50: 14.5 µM
  TGI: 47.7 µM
[59]
  GI50: 11.7 µM
  TGI: > 100 µM
